# Assay results from US20230117034A1, “PYRAZOLOTRIAZINES” (Bayer Aktiengesellschaft, priority 2019, published 2023).
# Like-named read-outs stand apart in the source and are kept apart here.
# What was measured:
# CDK2/CycE = target: T1, CDK2/CycE (Homo sapiens, UniProt P24941); assay: CDK2/CycE kinase assay (TR-FRET, 2 mM ATP); format: biochemical; details: 2 mM ATP (high ATP); median; read-out: CDK2/CyclinE, 2 mM ATP (high ATP), IC50 (median)
# T1 construct: purchased ProQinase GmbH (Freiburg, Germany); host or cells: insect cells (Sf9)
# How it was run: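 GST-tagged human CDK2 and CycE from Sf9 cells, about 10 ng/ml, pre-incubated 15 min at 22 °C with compound in Tris/HCl pH 8.0 buffer. Reaction with 2 mM ATP and 0.75 µM biotinylated peptide for 25 min at 22 °C. Phospho-RB antibody TR-FRET (665/620 nm ratio) read after 1 h; data normalised to no-inhibitor and no-enzyme controls.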
# [1] = test system: CAL-120, human breast adenocarcinoma cells; assay: Proliferation assay CAL-120 (crystal violet, 4 days); format: cell-based; details: CAL-120 cells, median, read-out: Prolif-CAL-120, IC50-[mol/l] (median)
# How it was run: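 Plated 4,000 cells/well, 10% FCS; 24 h later treated 0.01-10 µmol/L cpd (DMSO 0.1%), 4 d. Fix glutaraldehyde, stain 0.1% crystal violet pH 3.0, elute acetic acid, A595. Normalized to t0 plate/untreated; 4-param IC50.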
# [2] = target: T2, CDK12 (nuclear staining in CAL-120 cells) (Homo sapiens, UniProt Q9NYV4); assay: CDK12 nuclear protein level: immunofluorescence/high content analysis (CAL-120); format: cell-based; details: for DC50: CAL-120 cells, 24 h, immunofluorescence, 50% reduction of nuclear CDK12 staining intensity, median, read-out: CDK12 degradation IF, DC50- [mol/l] (median); for (IC50 CDK12 high ATP) to (Degradation DC50 CDK12) ratio: ratio of IC50 CDK12 high ATP kinase assay to DC50 CDK12 degradation (IF, CAL-120)
# T2 construct: endogenous in cells; host or cells: CAL-120 human breast cancer cells (DSMZ ACC 459)
# T2 sequence (Q9NYV4 whole entry): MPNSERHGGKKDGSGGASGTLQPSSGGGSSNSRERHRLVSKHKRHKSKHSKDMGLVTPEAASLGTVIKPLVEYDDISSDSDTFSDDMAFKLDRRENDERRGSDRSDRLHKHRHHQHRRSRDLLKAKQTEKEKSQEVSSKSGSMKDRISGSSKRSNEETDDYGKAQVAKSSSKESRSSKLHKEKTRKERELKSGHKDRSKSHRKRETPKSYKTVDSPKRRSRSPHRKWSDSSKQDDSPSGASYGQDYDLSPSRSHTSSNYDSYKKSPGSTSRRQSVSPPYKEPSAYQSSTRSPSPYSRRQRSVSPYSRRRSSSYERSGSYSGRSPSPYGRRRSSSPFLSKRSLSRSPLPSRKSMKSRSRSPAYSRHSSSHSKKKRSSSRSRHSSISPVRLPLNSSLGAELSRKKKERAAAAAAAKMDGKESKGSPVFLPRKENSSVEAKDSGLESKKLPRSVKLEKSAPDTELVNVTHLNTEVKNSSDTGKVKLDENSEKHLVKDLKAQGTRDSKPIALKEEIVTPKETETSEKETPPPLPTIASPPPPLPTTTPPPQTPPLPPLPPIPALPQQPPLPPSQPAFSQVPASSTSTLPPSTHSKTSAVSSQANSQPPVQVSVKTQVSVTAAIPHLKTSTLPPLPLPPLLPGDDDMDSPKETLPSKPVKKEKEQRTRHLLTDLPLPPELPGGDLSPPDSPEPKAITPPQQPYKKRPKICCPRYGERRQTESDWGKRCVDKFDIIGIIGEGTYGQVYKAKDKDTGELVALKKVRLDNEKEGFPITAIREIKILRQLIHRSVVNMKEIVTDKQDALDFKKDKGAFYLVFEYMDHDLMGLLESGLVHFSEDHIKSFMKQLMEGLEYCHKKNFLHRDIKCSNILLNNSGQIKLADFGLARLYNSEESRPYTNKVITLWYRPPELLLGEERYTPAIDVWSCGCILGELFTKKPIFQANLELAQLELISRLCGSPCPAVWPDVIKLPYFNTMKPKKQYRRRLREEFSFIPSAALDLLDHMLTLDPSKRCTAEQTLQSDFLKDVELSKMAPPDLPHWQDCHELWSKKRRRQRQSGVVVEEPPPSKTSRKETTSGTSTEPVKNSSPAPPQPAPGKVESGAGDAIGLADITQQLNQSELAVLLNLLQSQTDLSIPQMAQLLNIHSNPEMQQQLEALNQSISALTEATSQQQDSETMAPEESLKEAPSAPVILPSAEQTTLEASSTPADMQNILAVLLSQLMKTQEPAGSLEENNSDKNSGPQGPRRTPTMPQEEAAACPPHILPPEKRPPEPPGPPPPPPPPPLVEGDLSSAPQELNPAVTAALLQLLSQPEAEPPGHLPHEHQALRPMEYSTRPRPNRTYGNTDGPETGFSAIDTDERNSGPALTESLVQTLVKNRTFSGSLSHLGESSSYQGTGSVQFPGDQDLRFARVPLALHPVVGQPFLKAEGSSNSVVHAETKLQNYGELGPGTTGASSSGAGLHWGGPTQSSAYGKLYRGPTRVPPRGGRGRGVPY
# T2 sequence (O75909 whole entry partner): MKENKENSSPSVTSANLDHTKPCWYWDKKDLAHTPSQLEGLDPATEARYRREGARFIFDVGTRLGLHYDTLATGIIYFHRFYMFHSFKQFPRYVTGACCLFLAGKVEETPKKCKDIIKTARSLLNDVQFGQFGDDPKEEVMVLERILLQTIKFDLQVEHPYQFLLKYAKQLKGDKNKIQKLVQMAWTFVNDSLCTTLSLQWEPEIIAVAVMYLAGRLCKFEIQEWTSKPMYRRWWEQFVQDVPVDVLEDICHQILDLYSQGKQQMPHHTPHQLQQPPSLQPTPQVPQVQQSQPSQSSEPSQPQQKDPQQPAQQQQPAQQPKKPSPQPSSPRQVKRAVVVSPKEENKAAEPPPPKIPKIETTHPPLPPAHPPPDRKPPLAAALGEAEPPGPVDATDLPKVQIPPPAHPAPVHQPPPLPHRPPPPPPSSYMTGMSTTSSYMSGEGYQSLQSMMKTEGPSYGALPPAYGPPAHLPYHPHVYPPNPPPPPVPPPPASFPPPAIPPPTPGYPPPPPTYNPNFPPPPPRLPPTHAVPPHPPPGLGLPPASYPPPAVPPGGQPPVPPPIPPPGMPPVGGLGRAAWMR
# How it was run: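 CAL-120 cells were treated with compound for 24 h at 37 °C, fixed with PFA and immunostained for CDK12. Nuclear CDK12 intensity was quantified by automated image analysis and normalized to DMSO and control. DC50 is the concentration giving 50% reduction of nuclear staining.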
Compound,IC50 (CDK2/CycE) [µM],"IC50 ([1]; Homo sapiens, CAL-120, 96 h) [nM]",DC50 [2] [nM],(IC50 CDK12 high ATP) to (Degradation DC50 CDK12) ratio [2],IC50 [1] [nM]
"Clc1cc2nc(CNc3nc(N4CC5CCC(C4)N5)nc4c(Br)cnn34)[nH]c2cc1Cl [Example 334, 8-bromo-2-(3,8-diazabicyclo[3.2.1]octan-3-yl)-N-[(5,6-dichloro-1H-benzimidazol-2-yl)methyl]pyrazolo[1,5-a][1,3,5]triazin-4-amine]",10.5,1.72,33.5,60,
"CN(CC(C)(C)O)c1nc(NCc2nc3cc(C(F)(F)F)ccc3[nH]2)n2ncc(Br)c2n1 [Example 345, 1-{[8-bromo-4-({[5-(trifluoromethyl)-1H-benzimidazol-2-yl]methyl}amino)pyrazolo[1,5-a][1,3,5]triazin-2-yl](methyl)amino}-2-methylpropan-2-ol]",6.07,3.05,3.98,166,
"Cc1cc2nc(CNc3nc(N(C)CC(C)(C)O)nc4c(C5CC5)cnn34)[nH]c2cc1C [Example 321, 1-[(8-cyclopropyl-4-{[(5,6-dimethyl-1H-benzimidazol-2-yl)methyl]amino}pyrazolo[1,5-a][1,3,5]triazin-2-yl)(methyl)amino]-2-methylpropan-2-ol]",1,2.35,6.23,67,
"Cc1cc2nc(CNc3nc(N4CCOCC4)nc4c(C5CC5)cnn34)[nH]c2cc1C [Example 320, 8-cyclopropyl-N-[(5,6-dimethyl-1H-benzimidazol-2-yl)methyl]-2-(morpholin-4-yl)pyrazolo[1,5-a][1,3,5]triazin-4-amine]",4.71,4.24,4.28,130,
"Brc1cnn2c(NCc3nc4ccccc4[nH]3)nc(N3C[C@H]4CC[C@@H]3CO4)nc12 (single isomer, unassigned; enantiomer 2) [Example 391, N-[(1H-benzimidazol-2-yl)methyl]-8-bromo-2-{[1R or S-(1R*,4R*)]-2-oxa-5-azabicyclo[2.2.2]octan-5-yl}pyrazolo[1,5-a][1,3,5]triazin-4-amine (Enantiomer 2)]",4.91,,6.98,960,8.31
"CN1C2CCC1CN(c1nc(NCc3nc4c(F)cccc4[nH]3)n3ncc(C(F)(F)F)c3n1)C2 [Example 384, N-[(4-fluoro-1H-benzimidazol-2-yl)methyl]-2-(8-methyl-3,8-diazabicyclo[3.2.1]octan-3-yl)-8-(trifluoromethyl)pyrazolo[1,5-a][1,3,5]triazin-4-amine]",> 20,3.48,11,735,
"FC(F)(F)Oc1cccc2[nH]c(CNc3nc(N4C[C@H]5CC[C@@H](C4)N5)nc4c(Br)cnn34)nc12 [Example 381, 8-bromo-2-[(1R,5S)-3,8-diazabicyclo[3.2.1]octan-3-yl]-N-{[4-(trifluoromethoxy)-1H-benzimidazol-2-yl]methyl}pyrazolo[1,5-a][1,3,5]triazin-4-amine]",> 20,30.8,22.2,266,
"CN(CC(C)(C)O)c1nc(NCc2nc3cc(F)c(Cl)cc3[nH]2)n2ncc(Br)c2n1 [Example 338, 1-[(8-bromo-4-{[(6-chloro-5-fluoro-1H-benzimidazol-2-yl)methyl]amino}pyrazolo[1,5-a][1,3,5]triazin-2-yl)(methyl)amino]-2-methylpropan-2-ol]",6.57,1.93,0.894,1320,
"CN(c1nc(NCc2nc3ccccc3[nH]2)n2ncc(Br)c2n1)[C@H]1C[C@H](O)C1 [Example 365, trans-3-[(4-{[(1H-benzimidazol-2-yl)methyl]amino}-8-bromopyrazolo[1,5-a][1,3,5]triazin-2-yl)(methyl)amino]cyclobutan-1-ol]",1.74,70.2,23.6,247,
"CN(CC(C)(C)O)c1nc(NCc2nc3c(F)cccc3[nH]2)n2ncc(Cl)c2n1 [Example 366, 1-[(8-chloro-4-{[(4-fluoro-1H-benzimidazol-2-yl)methyl]amino}pyrazolo[1,5-a][1,3,5]triazin-2-yl)(methyl)amino]-2-methylpropan-2-ol]",5.57,31.3,9.52,190,
"FC(F)(F)c1cnn2c(NCc3nc4cc(Cl)c(Cl)cc4[nH]3)nc(N3CCOCC3)nc12 [Example 332, N-[(5,6-dichloro-1H-benzimidazol-2-yl)methyl]-2-(morpholin-4-yl)-8-(trifluoromethyl)pyrazolo[1,5-a][1,3,5]triazin-4-amine]",> 20,10.9,10.7,18,
"Fc1cc2nc(CNc3nc(N4CCOCC4)nc4c(Br)cnn34)[nH]c2cc1Cl [Example 336, 8-bromo-N-[(6-chloro-5-fluoro-1H-benzimidazol-2-yl)methyl]-2-(morpholin-4-yl)pyrazolo[1,5-a][1,3,5]triazin-4-amine]",8.95,3.21,3.08,256,
"Clc1cc2nc(CNc3nc(N4CCOCC4)nc4c(Br)cnn34)[nH]c2cc1Cl [Example 329, 8-bromo-N-[(5,6-dichloro-1H-benzimidazol-2-yl)methyl]-2-(morpholin-4-yl)pyrazolo[1,5-a][1,3,5]triazin-4-amine]",9.46,6.11,7.38,73,
"CC[C@H](COC)Nc1nc(NCc2nc3ccccc3[nH]2)n2ncc(Br)c2n1 [Example 369, N4-[(1H-benzimidazol-2-yl)methyl]-8-bromo-N2-[(2R)-1-methoxybutan-2-yl]pyrazolo[1,5-a][1,3,5]triazine-2,4-diamine]",10.5,140,20.6,>970,
"Cc1[nH]c(CNc2nc(N3CCOCC3)nc3c(Br)cnn23)nc1-c1ccccc1 [Example 27, 8-bromo-N-[(5-methyl-4-phenyl-1H-imidazol-2-yl)methyl]-2-(morpholin-4-yl)pyrazolo[1,5-a][1,3,5]triazin-4-amine]",17.1,,128,27,
"Fc1cc2nc(CNc3nc(N4CC5CCC(C4)N5)nc4c(C5CC5)cnn34)[nH]c2cc1F [Example 325, 8-cyclopropyl-2-(3,8-diazabicyclo[3.2.1]octan-3-yl)-N-[(5,6-difluoro-1H-benzimidazol-2-yl)methyl]pyrazolo[1,5-a][1,5]triazin-4-amine]",> 20,1.48,1.88,1890,
"CC(C)c1cnn2c(NCc3ncc(-c4ccccc4)[nH]3)nc(N3CCOCC3)nc12 [Example 30, 2-(morpholin-4-yl)-N-[(5-phenyl-1H-imidazol-2-yl)methyl]-8-(propan-2-yl)pyrazolo[1,5-a][1,3,5]triazin-4-amine]",7.28,,25.7,115,
"CN(c1nc(NCc2nc3ccccc3[nH]2)n2ncc(Br)c2n1)[C@H]1C[C@@H](O)C1 [Example 364, cis-3-[(4-{[(1H-benzimidazol-2-yl)methyl]amino}-8-bromopyrazolo[1,5-a][1,3,5]triazin-2-yl)(methyl)amino]cyclobutan-1-ol]",2.07,,3.81,1751,
"FC(F)(F)c1ccc2[nH]c(CNc3nc(N4CC5CCC(C4)N5)nc4c(Br)cnn34)nc2c1 [Example 354, 8-bromo-2-(3,8-diazabicyclo[3.2.1]octan-3-yl)-N-{[5-(trifluoromethyl)-1H-benzimidazol-2-yl]methyl}pyrazolo[1,5-a][1,3,5]triazin-4-amine]",,2.8,71.3,52,
"Cc1ccnc2[nH]c(CNc3nc(N4CCN(C)CC4)nc4c(C(C)C)cnn34)nc12 [Example 32, N-[(7-methyl-3H-imidazo[4,5-b]pyridin-2-yl)methyl]-2-(4-methylpiperazin-1-yl)-8-(propan-2-yl)pyrazolo[1,5-a][1,3,5]triazin-4-amine]",15.6,,7.21,2565,
"CCNc1nc(NCc2nc(-c3ccc(C)cc3)c[nH]2)n2ncc(Br)c2n1 [Example 26, 8-bromo-N^2-ethyl-N^4-{[4-(4-methylphenyl)-1H-imidazol-2-yl]methyl}pyrazolo[1,5-a][1,3,5]triazine-2,4-diamine]",2.07,,58.4,55,
